Columns and labels:
Test in all cases: relative viability (nuclei count vs DMSO), 5 days (fraction); higher = more cells survive
[1] = compound: CC1(COc2ccc3c(c2)ncn3-c2ccc3cccc(N4CCC(N)CC4)c3n2)COC1 [Crenolanib] + Nc1nc2[nH]cc(CCc3ccc(C(=O)N[C@@H](CCC(=O)O)C(=O)O)cc3)c2c(=O)[nH]1 [Pemetrexed] (partner 0.2 µM)
Method in brief: (§1)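 Five library-drug doses in √10 steps were combined with a fixed anchor-drug dose, or a single drug was given alone, by pin tool to lung cancer cell lines in 1536-well plates the day after seeding. Nuclei were stained and counted after 5 days. Relative viability is the nuclei count in treated wells over that in vehicle wells, taken as the median of duplicate plates.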

[2] = compound: O=C1NC(=O)[C@@H](c2cn3c4c(cccc24)CCC3)[C@@H]1c1c[nH]c2ccccc12 [Tivantinib] + Nc1nc2[nH]cc(CCc3ccc(C(=O)N[C@@H](CCC(=O)O)C(=O)O)cc3)c2c(=O)[nH]1 [Pemetrexed] (partner 0.2 µM)
Method in brief: as §1

[3] = compound: O=C1NC(=O)[C@@H](c2cn3c4c(cccc24)CCC3)[C@@H]1c1c[nH]c2ccccc12 [Tivantinib] + CC(=O)Nc1cccc(-n2c(=O)n(C3CC3)c(=O)c3c(Nc4ccc(I)cc4F)n(C)c(=O)c(C)c32)c1 [Trametinib] (partner 0.02 µM)
Method in brief: as §1

[4] = compound: O=C1NC(=O)[C@@H](c2cn3c4c(cccc24)CCC3)[C@@H]1c1c[nH]c2ccccc12 [Tivantinib] + COc1cc2c(Oc3ccc(NC(=O)C4(C(=O)Nc5ccc(F)cc5)CC4)cc3F)ccnc2cc1OCCCN1CCOCC1 [Foretinib] (partner 0.25 µM)
Method in brief: as §1

Row | Cell Line | relative viability ([1]; first compound 0.01 µM) | relative viability ([1]; first compound 0.03162 µM) | relative viability ([1]; first compound 0.1 µM) | relative viability ([1]; first compound 0.3162 µM) | relative viability ([1]; first compound 1 µM) | relative viability ([2]; first compound 0.01 µM) | relative viability ([2]; first compound 0.03162 µM) | relative viability ([2]; first compound 0.1 µM) | relative viability ([2]; first compound 0.3162 µM) | relative viability ([3]; first compound 0.01 µM) | relative viability ([3]; first compound 0.03162 µM) | relative viability ([3]; first compound 0.1 µM) | relative viability ([3]; first compound 0.3162 µM) | relative viability ([4]; first compound 0.01 µM) | relative viability ([4]; first compound 0.03162 µM) | relative viability ([4]; first compound 0.1 µM) | relative viability ([4]; first compound 0.3162 µM)
1 | NCI-H522 | 0.976 | 1.19 | 1.06 | 1.06 | 0.738 | 1.01 | 1.02 | 0.997 | 0.476 | 0.859 | 0.605 | 0.815 | 0.645 |  |  |  | 
2 | HCC-366 | 0.179 | 0.161 | 0.171 | 0.181 | 0.157 | 0.163 | 0.145 | 0.148 | 0.149 | 0.355 | 0.523 | 0.338 | 0.332 | 0.89 | 0.852 | 0.929 | 0.912
3 | A-427 | 1.01 |  | 0.99 | 0.989 | 0.834 | 1.01 | 1.06 | 0.99 | 0.961 | 0.795 | 0.786 | 0.737 | 0.673 | 1.06 | 1.24 | 0.97 | 0.848
4 | NCI-H23 | 0.761 | 0.62 | 0.644 | 0.817 | 0.615 | 0.688 | 0.653 | 0.646 | 0.715 | 0.509 | 0.352 | 0.37 | 0.347 | 1.08 | 0.957 | 1 | 0.801
5 | NCI-H1755 | 0.468 | 0.43 | 0.416 | 0.499 | 0.453 | 0.475 | 0.381 | 0.358 | 0.439 | 0.78 | 0.748 | 0.666 | 0.771 | 0.971 | 0.863 | 0.871 | 1.03
6 | EPLC-272H | 0.322 | 0.342 | 0.346 | 0.336 | 0.353 | 0.408 | 0.356 | 0.344 | 0.182 | 0.346 | 0.27 | 0.265 | 0.227 | 0.776 | 0.593 | 0.787 | 0.0941
7 | PC-3 [JPC-3] | 1.11 |  | 1.01 | 1.21 | 0.889 | 1.24 | 1.27 | 1.21 | 0.72 | 0.731 | 0.726 | 0.693 | 0.513 | 1 | 1.12 | 1.06 | 0.904
8 | NCI-H1975 | 0.306 | 0.316 | 0.289 | 0.284 | 0.312 | 0.294 | 0.287 | 0.249 | 0.27 | 0.323 | 0.338 | 0.33 | 0.298 | 0.904 | 0.974 | 0.905 | 0.996
9 | NCI-H1703 |  |  |  |  |  |  |  |  |  |  |  |  |  | 0.384 | 0.335 | 0.319 | 0.307
10 | HCC-44 | 0.639 | 0.662 | 0.707 | 0.632 | 0.642 | 0.62 | 0.654 | 0.616 | 0.664 | 1.04 | 1.11 | 1.02 | 1.02 |  |  |  | 
11 | SK-MES-1 | 1.06 | 0.964 | 0.886 | 0.967 | 0.929 | 0.95 | 0.913 | 0.816 | 0.783 | 0.645 | 0.511 | 0.521 | 0.582 | 1.02 | 0.637 | 0.962 | 0.924
12 | NCI-H727 |  |  |  |  |  |  |  |  |  | 0.413 | 0.343 | 0.398 |  | 0.829 | 0.857 | 0.629 | 0.732
13 | RERF-LC-KJ | 0.474 | 0.516 | 0.457 | 0.479 | 0.447 | 0.38 | 0.452 | 0.445 | 0.44 | 0.875 | 0.845 | 0.855 | 0.688 | 0.911 | 0.908 | 0.85 | 0.883
14 | NCI-H1623 |  |  |  |  |  |  |  |  |  |  |  |  |  | 0.87 | 0.745 | 0.818 | 
15 | Calu-6 |  |  |  |  |  |  |  |  |  |  |  |  |  | 0.931 | 0.924 | 0.806 | 0.725
16 | LCLC-103H | 0.453 | 0.45 | 0.476 | 0.503 | 0.48 | 0.472 | 0.368 | 0.406 | 0.432 | 0.6 | 0.736 | 0.69 | 0.668 | 0.783 | 0.68 | 0.735 | 0.663
17 | CAL-12T | 1.28 | 1.27 | 1.22 | 1.34 | 1.31 | 1.11 | 1.3 | 1.18 | 1.21 | 0.451 | 0.269 | 0.359 | 0.183 | 1.17 | 0.953 | 1.1 | 0.782
18 | SK-LU-1 | 0.943 | 1.03 | 0.892 | 1.11 | 0.966 | 0.935 | 1.06 | 0.96 | 1.04 | 0.514 | 0.549 | 0.484 | 0.472 | 0.932 | 0.919 | 0.705 | 0.708
19 | NCI-H1651 | 0.573 | 0.599 | 0.592 | 0.566 | 0.62 | 0.553 | 0.548 | 0.572 | 0.58 | 0.801 | 0.798 | 0.825 | 0.787 | 0.931 | 0.813 | 0.769 | 0.691
20 | BEN | 0.784 | 0.637 | 0.677 | 0.752 | 0.774 | 0.724 | 0.71 | 0.636 | 0.684 | 1.13 | 0.94 | 1.01 | 0.769 | 0.602 | 0.535 | 0.616 | 0.559
21 | EMC-BAC-2 | 0.437 |  | 0.456 | 0.449 | 0.436 | 0.457 | 0.448 | 0.475 | 0.479 | 0.907 | 0.934 | 0.879 | 0.868 | 1 | 0.962 | 0.487 | 0.72
22 | LXF-289 | 0.853 | 0.905 | 0.865 | 0.922 | 0.897 | 0.925 | 0.501 | 0.896 | 0.925 | 0.628 | 0.631 | 0.628 | 0.669 | 0.96 | 0.927 | 0.95 | 0.983

Reference: the supplement of paper PMC10307832
